Measurements published in US9359419B2, “Treatment of vascular complications of diabetes” (priority 2010, dated 2016).
Entries after “also recorded” stand apart in the source; their conditions may differ.

Columns and labels:
STZ-treated rats = settings: rat, in vivo
Description: In this experiment, Male Sprague-Dawley rats (240 to 265 g, n=3) were divided into three groups: 1. Control rats receiving injections of vehicle alone, 2. rats rendered diabetic with STZ (50 mg/kg, intraperitoneally) and 3. […] Rats with blood levels >350 mg/dL were considered to be diabetic.

[1] = system: U46619-contracted septal coronary arteries; assay: Acetylcholine-induced vasorelaxation of septal coronary arteries from STZ-induced diabetic rats; format: in vivo, rat; settings: TIP peptide 125 μg i.p. every three days for four weeks, vs STZ group, n=3
Description: and tested for their ability to relax in response to progressive concentrations of acetylcholine. The vasorelaxant responses are expressed as percent of maximal control relaxation.

perfused rat hearts = assay: Cardiac permeability by BSA-FITC perfusion (Langendorff method) of hearts from STZ-treated rats; format: in vivo; settings: 125 μg/rat over 4 wks i.p.
Description: Following the same protocol as above, hearts from Ctrl, STZ-treated and TIP/STZ treated rats were isolated after 4 wks. The hearts were perfused using the Langendorff method with BSA-FITC (Di Napoli et al., Nitric Oxide 16 (2007), 228-236). Hearts were subsequently frozen in liquid nitrogen and slices were cut with a microtome. Subsequently, fluorescence was assessed in 4 slices of each heart and cumulative fluorescence responses were recorded.

fresh human whole blood = assay: Release of Interleukin-6 from fresh human whole blood (ELISA); format: cell-based; parameters: Concentration of IL-6: unit of the concentration uncertain; settings: for Concentration of IL-6: 24 hours, n = 5
Description: It was the goal of this study to determine the pro-inflammatory signalling capacity of the AP301 peptide. Whole blood cultures were used and the secretion of interleukin-6 (IL-6), a very sensitive marker for pro-inflammatory stimulation, was quantified by ELISA.
• Test system 25 ml of freshly taken heparinized blood from 5 healthy volunteers (HV) was used in the assays. […]
Whole blood (WB) cultures were done by pipetting 1 ml of WB into wells of 24 well plates. In each experiment unstimulated and control-stimulated cultures were included.
If possible the substances and stimulants to be investigated were always added in an identical volume to each well of a given experiment, not greater than 10% of the total volume contained in a well. Unstimulated controls received PBS. Volume adjustments and dilutions for different treatments were also done with PBS.
The content of each well was mixed and the plates incubated at 37° C. and 5% CO2 for 24 hours. After incubation the content of each well was transferred to a fresh 1.5 ml microtube and centrifuged at 8000-9000×g for 15 minutes. The supernatant of each sample was transferred individually to two 1.5 ml microtubes and kept at −20° C. until use.
Interleukin-6 was quantified by a specific ELISA (Human IL-6 ELISA Set, BD Biosciences, Cat. No. 555220) employing an anti-human IL-6 antibody as capture antibody, a biotinylated anti-human IL-6 detection antibody, avidin-horseradish peroxidase conjugate as enzyme reagent, and recombinant IL-6 as standard. Absorbance measurement was performed at 450 nm using the Packard FusionReader.
The results for each plate were stored and evaluated using the FusionDataAnalysis software. […]

## C[C@@H]1NC(=O)CNC(=O)[C@H](CCC(=O)O)NC(=O)[C@@H]2CCCN2C(=O)[C@H]([C@@H](C)O)NC(=O)[C@H](CCC(=O)O)NC(=O)[C@H](CCCNC(=N)N)NC(=O)[C@H](CCC(N)=O)NC(=O)CNC(=O)[C@@H](N)CSSC[C@@H](C(=O)O)NC(=O)[C@H](Cc2ccc(O)cc2)NC(=O)[C@H](Cc2c[nH]c3ccccc23)NC(=O)[C@@H]2CCCN2C(=O)[C@H](CCCCN)NC(=O)[C@H](C)NC(=O)[C@H](CCC(=O)O)NC1=O [AP301, (NH2) Cys-Gly-Gln-Arg-Glu-Thr-Pro-Glu-Gly-Ala-Glu-Ala-Lys-Pro-Trp-Tyr-Cys (COOH)]
STZ-treated rats
  weight: increased weight loss
[1]
  acetylcholine-induced vasorelaxation response in septal coronary arteries: significantly improved the vasorelaxation response
Perfused rat hearts
  cardiac permeability (Albumin-FITC incorporation): significantly inhibits cardiac hyperpermeability
Perfused rat hearts; listed as TIP peptide
  cardiac permeability (Albumin-FITC incorporation): inhibits STZ-associated cardiac permeability
Fresh human whole blood; concentration 1 ng/ml
  Concentration of IL-6: less than 0.5 pg/ml
Fresh human whole blood; concentration 3 ng/ml
  Concentration of IL-6: less than 0.5 pg/ml
Fresh human whole blood; concentration 1 (unit uncertain)
  Concentration of IL-6: less than 0.5 pg/ml
Fresh human whole blood; concentration 10 (unit uncertain)
  Concentration of IL-6: less than 0.5 pg/ml
Fresh human whole blood; whole blood cultures from five healthy donors, all concentrations tested (10 μg/ml to 1 ng/ml)
  IL-6 secretion (pro-inflammatory response): did not induce any detectable level of IL-6 secretion; also recorded: did not induce a pro-inflammatory response
